In patent US20090181438A1, “OPTIMIZATION OF BIOFUEL PRODUCTION” (THE OHIO STATE UNIVERSITY RESEARCH FOUNDATION, priority 2007, published 2009):

Tests used:
[1] = system: Nannochloropsis sp.; assay type: cell-based
Method: Under simulated outdoor growing conditions (30 ppt, 26-37° C., 14:10 of 1000 umol, F/2) 12 liter aquaria of Nannochloropsis sp., equipped with mixers and pH controlled (˜7.2) CO2 gas input, had 25% of culture volume removed daily which was variably (0-25% of total fraction) extracted of lipids with decane (15 min) and sonic (2 sec) energy, decanted of solvent, then returned to culture, while the remaining untreated fraction (0-25%) was removed, dried and extracted with hexane.

[2] = system: Nannochloropsis sp. cultures
Method: Variable fractions (0, 10%, 25%, and 50%) of identical 100 mL Nannochloropsis sp. cultures (n=2) were initially (arrows) mixed (15 min) with decane and exposed to an ultrasonic field (2 sec; 40 kHz water bath), decanted of solvent, then grown (F/2, 23° C., 24:0 of 100 μmol, 100 rpm, 33 ppt, 100 mL in 500 mL flasks). Further, variable timed treatments (arrows) at log-phase and stationary phases were also completed.

[3] = system: cultures of Botryococcus braunii; settings: cited from earlier work

SMILES: CCCCCCCCCC [decane]
- growth rates and resultant culture biomass [1]: augment growth rates and the resultant culture biomass
- tolerance of daily exposure to treatment [1]: tolerated
- growth rate and resultant algal biomass compared to no treatment [2]: can positively affect growth rate and resultant algal biomass

SMILES: CCCCCCCCCCO [decanol]
- solvent toxicity / biocompatibility [3]: toxic

SMILES: CCCCCOCCCCC [dipentyl ether]
- solvent toxicity / biocompatibility [3]: toxic

SMILES: CCCCCCC [heptane]
- solvent toxicity / biocompatibility [3]: nontoxic

SMILES: CCCCCC [hexane]
- solvent toxicity / biocompatibility [3]: nontoxic
